The conditions of data set [1]: literature; cited from earlier work.
The subject of the next data set is tau. The settings on record: literature; cited from earlier work.
Another data set has as its system tau polypeptides. Briefly: Light scattering measurements (absorbance at 350 nm) of tau aggregation. It counts as biochemical, human. As to the method: FIG. 11. Dose response of cinnamon (oxidized) on tau aggregation. […] In this experiment, cinnamon was incubated overnight in 10 mM NH4OH.
FIG. 12. Effect of cinnamon A trimer on light scattering of tau.
In one illustrative embodiment of the invention, the effects of cinnamon extract or purified cinnamon proanthocyanidins on tau aggregation can be followed readily in a spectrophotometer by measuring the change in absorbance at 350 nm. The association of tau promoted by heparin causes an increase in absorbance. […] Different buffers and temperatures may be used if desired to study factor influencing aggregation.

Data set [2] concerns the target T1, tau187 (Homo sapiens, UniProt P10636).
T1 construct: his; made in house; host or cells: bacteria
Briefly: Turbidity (OD350) assay of heparin-induced aggregation, tau187. As to conditions: cinnamaldehyde 50 and 100 uM; tau187 50 uM, heparin 0.11 mg/ml, 23 C. The data set is classed as biochemical. As to the method: FIG. 15A. […] 50 μM Tau^187 was incubated with 0.11 mg/ml heparin (18 kDa) at 23° C. Aggregation was monitored by turbidity (OD350). Cinnamaldehyde was present at a final concentration of 0, 50 and 100 μM. FIG. 15B. Electron microscopy of tau fibers in the presence of cinnamaldehyde (CA). Tau fibers were visualized by electron microscopy after 5 hrs of aggregation in the presence of: 0 CA (left panel); B) 100 uM CA (right panel). […] FIG. 15 C. Trans-cinnamaldehyde chemical structure. FIG. 16A. […] 50 uM tau187 was incubated with 0.11 mg/mL heparin (18 kDa) at 23° C. Epicatechin was untreated, treated with 10 mM NH4OH for 10 min at 95° C. then neutralized, or treated with 100 U of mushroom tyrosinase (Sigma) for 10 min. Epicatechin was added to the reaction at a final concentration of 25 uM. Fiber formation was monitored by OD 350. FIG. 16B. epicatechin and catechin chemical structures. FIG. 17A. HPLC analysis of proanthocyanidin A-type trimer, A) purified or B) in whole cinnamon extract. The trimer corresponds to the major peak at ˜40 min. Areas underneath the peaks in panels A and B each correspond to 6150 pmoles. […] Fiber formation was monitored by OD 350. Concentrations of A-trimer in pure form and in whole cinnamon extract (CE) were normalized by absorbance measurements of the A-trimer resolved by HPLC. […]

In data set [3] the target is T1, tau187. The data set can be described thus: Electron microscopy of tau187 fibers. The data set is classed as biochemical. As to conditions: 100 uM CA, 5 hrs of aggregation. The protocol:
FIG. 6. […] Aggregation of tau^187 (50 uM) was initiated with heparin (0.1 mg/ml) in 20 mM NaPO4, pH 7.0. in the presence of: no proanthocyanidin (left panel), or 200 uM purified A-type trimer (right panel). Scale: Bars=500 nm
FIG. 13. Effect of oxidized cinnamon on tau filament formation. […] Left panel: no cinnamon; right panel 10 μM oxidized cinnamon.
FIG. 15A. […] 50 μM Tau^187 was incubated with 0.11 mg/ml heparin (18 kDa) at 23° C. Aggregation was monitored by turbidity (OD350). Cinnamaldehyde was present at a final concentration of 0, 50 and 100 μM. FIG. 15B. Electron microscopy of tau fibers in the presence of cinnamaldehyde (CA). Tau fibers were visualized by electron microscopy after 5 hrs of aggregation in the presence of: 0 CA (left panel); B) 100 uM CA (right panel). […] FIG. 15 C. Trans-cinnamaldehyde chemical structure.
Two hexapeptide motifs in tau are critical for tau aggregation and fiber formation (see, e.g. von Bergen et al., Proc Nad Acad Sci USA 97, 5129-34 (2000)). These motifs lie in the first and second inter-repeat regions of the MT binding domain (FIG. 5), and it is known that engineered truncation fragments of tau that contain these motifs often undergo aggregation into fibers even more efficiently than the full-length molecule (see, e.g. Barghorn et al., Biochemistry 41, 14885-96 (2002)). […]

T1 sequence (P10636 572-758 limits assumed): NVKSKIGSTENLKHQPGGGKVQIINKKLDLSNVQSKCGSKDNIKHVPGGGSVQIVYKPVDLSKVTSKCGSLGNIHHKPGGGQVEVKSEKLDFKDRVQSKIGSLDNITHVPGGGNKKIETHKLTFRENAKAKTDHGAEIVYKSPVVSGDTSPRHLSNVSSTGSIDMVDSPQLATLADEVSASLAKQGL

For the molecule `Oc1cc(O)c2c(c1)O[C@H](c1ccc(O)c(O)c1)[C@H](O)C2` [epicatechin], the “Brain permeability after oral ingestion” value in data set [1] was “brain-permeable”.

Turning to `Oc1cc(O)c2c(c1)O[C@H](c1ccc(O)c(O)c1)[C@H](O)[C@H]2c1c(O)cc(O)c2c1O[C@H](c1ccc(O)c(O)c1)[C@@H](O)C2` [proanthocyanidin dimer B1], the “Inhibition of tau aggregation (published studies)” value with tau was “effectively inhibit tau aggregation”.

For the molecule `O=C(O[C@@H]1Cc2c(O)cc(O)cc2O[C@@H]1c1cc(O)c(O)c(O)c1)c1cc(O)c(O)c(O)c1` [epigallocatechin gallate], the “Inhibition of tau aggregation (published studies)” value in the data set with tau is on record as “effectively inhibit tau aggregation”.

As to `Oc1cc(O)c2c(c1)O[C@H](c1ccc(O)c(O)c1)[C@H](O)[C@H]2c1c(O)cc(O)c2c1O[C@H](c1ccc(O)c(O)c1)[C@H](O)C2` [cinnamon proanthocyanidin B2, proanthocyanidin B2], the “Inhibition of tau aggregation by light scattering” value in the data set on tau polypeptides is on record as “inhibits the aggregation”.

`O=C/C=C/c1ccccc1` [cinnamaldehyde, Trans-cinnamaldehyde]: at tau187 [2], the “Inhibition of tau187 aggregation (turbidity OD350)” value is listed as “Inhibition of tau aggregation”. Also, the “Tau fiber density by EM” value on tau187 [3] is recorded as “dramatically reduced”.

(Values after patent publication US20110263696A1, “PROANTHOCYANIDINS FROM CINNAMON AND ITS WATER SOLUBLE EXTRACT INHIBIT TAU AGGREGATION” (priority 2007, published 2011).)
